Read-outs that look alike come from different tables or passages of the source.
Experiments:
[1] = system: UGT1A1, -1A3, -1A4, and -1A8; conditions: predominant site 3-hydroxyl; cited from earlier work
[2] = Sulfation in rat liver cytosol with PAPS
Protocol: Sulfate conjugation is enabled by sulfotransferases in the presence of the cofactor 3'-phosphoadenosine-5'-phosphosulfate (PAPS).
The pre-incubation solution was prepared by adding 13.5 μL 1 M pH=7.5 Tris-HCl buffer, 247.5 μL water, 6 μL 1 mM 3'-Phosphoadenosine-5'-phosphosulfate (PAPS) from R&D Systems, 30 μL (10 mg/mL) cytosolic protein from Corning Gentest into a 1.5 mL microcentrifuge. The mixtures were incubated at 37°C for 5 min in an incubator. Then 3 μL of 10 mM ZB716 was added, mixed, and incubated at 37°C for 60 min in the incubator. After incubation, 300 μL MeOH was added to terminate the reaction. The final mixture was then -centrifuged at 10,000×g for 4 min at 4 °C. The supernatant was analyzed by the UHPLC-Q-Exactive instrument.
The Q-Exactive mass spectrometer was coupled to a UHPLC ultimate 3000 (Dionex) using a C-18 column (1.8 μm, 2.1 mm x 50 mm). The gradient started from 30% mobile phase B (acetonitrile with 0.05% formic acid) for 1 min, increased to 100% B in 4.5 min, held for 5 min, then decreased back to 30% B and held for 5 min. Mobile phase A was water with 0.05% formic acid. The flow rate was controlled at 0.3 mL/min. PRM mode was used to obtain the fragment patterns for metabolites with the setting of MS2 resolution of 17500, AGC target of 1e5, maximum IJ of 100 ms, NCE setting of 35. […]

[3] = design: method as in PMID 12490735; conditions: second line therapy in the metastatic setting; cited from earlier work
[4] = Glucuronidation in liver microsomes with UGT reaction mix (UDPGA); conditions: fulvestrant incubated with liver microsomes and UDPGA
Protocol: The pre-incubation solution was prepared by adding 205.5 μL water, 24 μL of UGT Reaction Mix solution A, 60μL of UGT Reaction Mix solution B, 7.5 μL rat liver microsomes from Corning Gentest into a 1.5 mL microcentrifuge. The mixtures were incubated at 37°C for 5 min in an incubator. Then 3 μL of 10mM ZB716 was added, mixed, and incubated at 37°C for 60 min in the incubator. After incubation, 300 μL MeOH was added to terminate the reaction. The final mixture was then centrifuged at 10,000× g for 4 min at 4 °C. The supernatant was analyzed by the UHPLC-Q-Exactive instrument.
(§1) The Q-Exactive mass spectrometer was coupled to a UHPLC ultimate 3000 (Dionex) using a C-18 column (1.8 μm, 2.1 mm x 50 mm). The gradient started from 30% mobile phase B (acetonitrile with 0.05% formic acid) for 1 min, increased to 100% B in 4.5 min, held for 5 min, then decreased back to 30% B and held for 5 min. Mobile phase A was water with 0.05% formic acid. The flow rate was controlled at 0.3 mL/min. PRM mode was used to obtain the fragment patterns for metabolites with the setting of MS2 resolution of 17500, AGC target of 1e5, maximum IJ of 100 ms, NCE setting of 35. The heated ESI probe setting was set as sheath gas at 30 psi, auxiliary gas at 8 psi, spray voltage at 2500V, capillary temperature at 280°C, S-lens RF level at 50, and auxiliary gas heater temperature at 300°C.

[5] = Metabolism and pharmacokinetics of ZB716 in rat plasma after oral dosing
Protocol: The same PRM approach was used to identify the metabolites of ZB716 in rat plasma collected at various time points after a single oral dose of 10 mg/kg. […] The pharmacokinetics parameters were calculated using a noncompartment extravascular model (Table 3).
Female Sprague-Dawley rats, weighing between 350 and 400 g (Charles River Laboratories, Portage, MI), were used for this study on ZB716. Oral gavages containing ZB716 were formulated in 5% dimethyl sulfoxide (DMSO), 40% polyethylene glycol 400, and 55% saline. Rats were housed in metabolic cages for collection of urine and feces samples after oral administration of ZB716 at a dose of 5 or 10 mg/kg. […] Urine and feces were collected for the durations of 0-1h, 1-3h, 3-6h, 6-8h, 8-24h, 24-48h, 48-72h, 72-96h, and 96-120 h after drug administration. Blood samples were collected from the lateral tail vein of the rats at 5 min, 15 min, 30 min, 1 h, 3 h, 6 h, 8 h, 24 h, and 48 h time points after drug administration. Rat blood was collected with a capillary into 1.5 mL microcentrifuge tubes containing 0.01 mL of 10 % EDTA anticoagulant. Plasma was then separated from cell pellets by centrifugation in a refrigerated centrifuge at 4 °C and transferred to a separate tube. Plasma samples were frozen at -80 °C until analysis.
Plasma samples (100 μL) were extracted using a modified Folch method for lipid extraction. Internal standard (10 μL 0.5 ng/μL trans-tamoxifen-13C2,15N in methanol), methanol (0.5 mL) and chloroform (1 mL) were added to each plasma sample. The mixtures were stored at −20 °C overnight. Samples were sonicated for 10 min and then centrifuged with a Thermo Scientific Heraeus Megafuge16 centrifuge. The top liquid layer was transferred to another test tube. The bottom residual layer was washed with 0.5 mL of chloroform/methanol (2:1), centrifuged, and the top layer was transferred and combined with the previous top layer. The mixture was dried out with nitrogen at room-temperature and re-suspended in 100 μL of HPLC grade methanol for injection.
as §1
(§2) Concentrated stock solutions of ZB716 and fulvestrant were prepared at 1 mM in methanol. The stock solution of the internal standard (trans-tamoxifen-13C2,15N) was prepared at 1000 ng/μL in methanol. The above stock solutions were kept at -20°C until use. The working solutions of ZB716 and fulvestrant were prepared at 100 μM in methanol. The working solution of the internal standard trans-tamoxifen-13C2, 15N was prepared at 5 ng/μL and 0.5 ng/ μL in methanol, respectively. Working solutions at various concentrations were prepared by diluting their corresponding stock solution with methanol. Calibration standards quality control solutions were prepared over a range of five orders of magnitude.

[6] = Oxidative metabolism of ZB716 in rat liver microsomes with NADPH; conditions: ZB716 with rat liver microsome and NADPH, 1 hour
Protocol: By incubating ZB716 with rat liver microsome in the presence of NADPH for 1 hour, the cytochrome P450 enzymes in the microsomes were allowed to oxidize ZB716 under aerobic conditions.
NADPH solution A contains NADP+ and Glucose 6-phosphate. NADPH solution B contains Glucose-6-phosphate dehydrogenase, which is necessary for NADPH regeneration. The pre-incubation solution was prepared by adding 30 μL of potassium phosphate buffer (pH 7.4; 10x), 241.5 μL water, 15μL of NADPH solution A, 3 μL of NADPH solution B, and 7.5 μL rat liver microsomes from Corning Gentest into a 1.5 mL microcentrifuge tube. The mixtures were incubated at 37°C for 5 min in an incubator. Then 3 μL of 10 mM ZB716 was added, mixed, and incubated at 37°C for 60 min in the incubator. After incubation, 300 μL MeOH was added to terminate the reaction. The final mixture was then centrifuged at 10,000×g for 4 min at 4°C. The supernatant was analyzed by UHPLC-HRMS (Thermo Q-Exactive).
The Q-Exactive mass spectrometer was coupled to a UHPLC ultimate 3000 (Dionex) using a C-18 column (1.8 μm, 2.1 mm x 50 mm). The gradient started from 30% mobile phase B (acetonitrile with 0.05% formic acid) for 1 min, increased to 100% B in 4.5 min, held for 5 min, then decreased back to 30% B and held for 5 min. Mobile phase A was water with 0.05% formic acid. The flow rate was controlled at 0.3 mL/min. […]

[7] = ZB716 and metabolites in rat urine after oral dosing; conditions: for share in urine accounted for in urinary excretion 72 hours after oral dosage: oral ZB716, after 72 h
Description: Urine samples were subjected to the same HPLC-MS/MS analysis to identify ZB716 and any possible metabolites over a time course post oral administration. […] Again, quantitation was only possible with ZB716 and fulvestrant for which standard calibration curves were established.
(§3) Female Sprague-Dawley rats, weighing between 350 and 400 g (Charles River Laboratories, Portage, MI), were used for this study on ZB716. Oral gavages containing ZB716 were formulated in 5% dimethyl sulfoxide (DMSO), 40% polyethylene glycol 400, and 55% saline. Rats were housed in metabolic cages for collection of urine and feces samples after oral administration of ZB716 at a dose of 5 or 10 mg/kg. […] Urine and feces were collected for the durations of 0-1h, 1-3h, 3-6h, 6-8h, 8-24h, 24-48h, 48-72h, 72-96h, and 96-120 h after drug administration.
Urine samples were thawed at room temperature and vortaxed. 200 μL of the sample was transferred to a 1.5 mL Eppendorf microcentrifuge tube followed by adding 10 μL of the 0.5 ng/μL trans-tamoxifen-13C2,15N in methanol solution and 200 μL methanol. After Vortaxing and centrifuging, the sample was injected into the UHPLC-Q-Exactive instrument for analysis.
as §1, §2

[8] = ZB716 and metabolites in rat feces after oral dosing; conditions: for share measured in feces after 72 hours: oral ZB716, after 72 h
Protocol: as §3
The internal standard of trans-tamoxifen-13C2,15N (0.5 ng/μL in methanol) was added to the feces samples at 10 ng/g feces based on the weight of the feces collected. Feces samples were homogenized with a Power Gen 125 homogenizer (Fisher Scientific) in the mixture of chloroform/methanol (2:1, v:v) and stored at -20 °C overnight. After sonicating for 30 min, the samples were centrifuged with a Heraeus Megafuge16R centrifuge at 3000 RPM. The supernatant was dried with nitrogen gas at room temperature and resuspended with corresponding amount of methanol (200 μL methanol/g feces) for injection on the UHPLC-Q-Exactive instrument.
as §1
Concentrated stock solutions of ZB716 and fulvestrant were prepared at 1 mM in methanol. The stock solution of the internal standard (trans-tamoxifen-13C2,15N) was prepared at 1000 ng/μL in methanol.

[9] = design: method as in PMID 27529700, PMID 29467940; conditions: cited from earlier work
[10] = female, Sprague-Dawley, rat, plasma, po, 10 mg/kg

## CC12CCC3c4ccc(O)cc4CC(CCCCCCCCC[S+]([O-])CCCC(F)(F)C(F)(F)F)C3C1CCC2OC1OC(C(=O)O)C(O)C(O)C1O (stereo not drawn) [FU-17-glucuronide]
[1]
  share of fulvestrant glucuronidation products: 5-10%

## C[C@]12CC[C@@H]3c4ccc(O)cc4C[C@@H](CCCCCCCCC[S+]([O-])CCCC(F)(F)C(F)(F)F)[C@H]3[C@@H]1CC[C@@H]2O (stereo partly drawn) [Fulvestrant, reference compound]
[2]; fulvestrant incubated with rat liver cytosol
  site of sulfation: predominantly at 3-position
[3]
  clinical response rate: below 20%
[4]
  site of glucuronidation: primarily at 3-OH
[5]; rat plasma after single oral dose of ZB716 10 mg/kg, + detected, - not detected
  detected in rat plasma: identified
[6]
  oxidative metabolite of ZB716 identified in incubation mixture: identified
[7]; rat urine after oral administration of ZB716, + detected, - not detected
  detected in rat urine: detected
[7]; rat
  share in urine accounted for in urinary excretion 72 hours after oral dosage: less than 1%
[7]; rat, oral ZB716, metabolite fulvestrant, first 48 h
  share of all fulvestrant found in urine excreted in the first 48 hours: 97.6%
[8]; rat feces after single oral dose of ZB716, + detected, - not detected
  detected in rat feces: detected
[8]; rat
  share measured in feces after 72 hours: Less than 1%
[8]; rat, oral ZB716, metabolite fulvestrant, before 72 h
  fulvestrant excreted in feces before 72 h: 69.2%
[9]; animals, similar dosage via s.c. injection
  peak plasma concentration: 20 ng/mL

## C[C@]12CC[C@@H]3c4ccc(B(O)O)cc4C[C@@H](CCCCCCCCC[S+]([O-])CCCC(F)(F)C(F)(F)F)[C@H]3[C@@H]1CC[C@@H]2O (stereo partly drawn) [ZB716]
[2]; ZB716 with rat liver cytosol and PAPS
  number of sulfate conjugation products observed: three
[5]; [10]
  AUC(0-t): 1300 ng·h/mL
  MRT inf: 18.4 h
  Tmax: 2 h
  concentration at 1 h: 130 ng/mL
  concentration at 4 h: 87.1 ng/mL
  concentration at 8 h: 26.4 ng/mL
  concentration at 48 h: 6.91 ng/mL
  k el: 1.11e-05 s⁻¹
[5]; in vivo, observed in mice (ref 27-28) and again in rats in this study
  share of ZB716 metabolized to fulvestrant: 10-30%
[5]; rat, oral 10 mg/kg
  AUC 0-inf_obs: 1451.82 ng·h/mL
  Cmax: 158.12 ng/mL
  Vz/Fobs (apparent volume of distribution during terminal phase): 13.97 (mg/kg)/(ng/mL)
[5]; rat, oral 10 mg/kg, noncompartment extravascular model
  t1/2: 17.03 h
[5]; rat, single oral dose 10 mg/kg, within 2 hours after peak
  loss of plasma concentration from 2 h to 4 h: 44.9%
[6]
  number of direct or indirect oxidative metabolites identified: eight
[7]; rat
  share in urine accounted for in urinary excretion 72 hours after oral dosage: less than 1%
[7]; rat, oral, 24-72 h
  share of ZB716 in urine excreted between 24 h to 72 h: 34.4%
[7]; rat, oral, before 24 h
  share of ZB716 in urine excreted before 24 h: about 63.7%
[8]; rat
  share measured in feces after 72 hours: Less than 1%
[8]; rat, oral, 0-24 h
  share of total ZB716 present in feces excreted in 24 hours: 80.7%
[8]; rat, oral, 24-72 h
  share of ZB716 in feces excreted between 24 h to 72 h: 10.2%
[9]; mice and rats, oral administration at 10 mg/kg
  peak plasma concentration: > 100 ng/mL

Reference: paper PMC5732773, “Metabolism, pharmacokinetics, and bioavailability of ZB716, a Steroidal Selective Estrogen Receptor Downregulator (SERD)” (Oncotarget, 2017)
